Results published in patent US20260167622A1, “PAN-KRAS DEGRADING AGENT, AND PREPARATION METHOD THEREFOR AND USE THEREOF” (LEADINGTAC PHARMACEUTICAL (SHAOXING) CO., LTD., priority 2022, published 2026).

How the values were obtained:
Format in all cases: cell-based
[1] = test system: KRAS G12D mutant human lung cancer cell A427; test: 3D cell proliferation inhibition assay, A427; conditions: A-427, 168 h, 3D culture, 7 days, CTG
Source text: (§1) Test Example 6: 3D Cell Proliferation Inhibition Assay
(§2) The inhibitory effects of the compounds on 3D cell proliferation were investigated on KRAS G12C mutant human non-small cell lung cancer cell NCI-H358, KRAS G12D mutant human lung cancer cell A427, KRAS G12D mutant human gastric cancer cell AGS, KRAS G12D mutant human metastatic pancreatic cancer cell AsPc-1, KRAS G12V mutant human lung squamous carcinoma cell SW900, KRAS G12V mutant human colorectal cancer cell SW620, KRAS G13D mutant human colorectal cancer epithelial cell DLD-1, and KRAS WT human gastric cancer cell MKN1. The specific procedures were as follows:
(§3) 10 μL of each compound solution diluted in a gradient was added to corresponding wells of a 96-well low-adsorption microplate (PerkinElmer), so that the final concentrations of the test compounds in the reaction system were in a range of 10000-0.026 nM. The final concentration of DMSO was 0.2%. Then 90 µL of cells were correspondingly seeded into each well to achieve a cell density of 5×10^2 cells/well (the cell density of SW900 was 5×10^3 cells/well, and the cell density of MKN1 was 1×10^3 cells/well). In addition to test wells for the test compounds, both a DMSO control well and a medium control well were set, with the DMSO control well containing DMSO and cells and the medium well containing only a medium. After the sample loading, the 96-well low-adsorption microplate was incubated in an incubator at 37° C. with […] for 7 days. After 7 days, the microplate was taken out, and 100 μL of CTG reagent (Promega) was added to each well. The plate was incubated at room temperature for 60 m and read on a microplate reader EnVision by the chemiluminescence program. The inhibition rates of the compounds at each concentration were calculated using the formula for the percentage inhibition of cell proliferation: inhibition rate 00=(mean value of DMSO control group−single concentration reading value of compound)/(mean value of DMSO control group−mean value of medium control group)×100. Then non-linear curve fillings for logarithmic concentration-inhibition rate were performed by GraphPad Prism 8, and the IC50 values of the compounds were obtained (Table 6).

[2] = test system: KRAS WT human gastric cancer cell MKN1; test: 3D cell proliferation inhibition assay, MKN1; conditions: MKN-1, 168 h, 3D culture, 7 days, CTG
In short: (§4)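 Cells seeded in low-adsorption plates at 5×10^2 cells/well (MKN1 1×10^3) with compounds at final 10000–0.026 nM, 0.2% DMSO, 3D culture 7 days at 37 °C. Viability by CellTiter-Glo luminescence; inhibition normalised to DMSO and medium-only controls, IC50 from nonlinear log-concentration fit.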

[3] = test system: KRAS G12D mutant human metastatic pancreatic cancer cell AsPc-1; test: 3D cell proliferation inhibition assay, AsPc-1; conditions: ASPC1, 168 h, 3D culture, 7 days, CTG
In short: as §4

[4] = test system: KRAS G12D mutant human gastric cancer cell AGS; test: 3D cell proliferation inhibition assay, AGS; conditions: 168 h, 3D culture, 7 days, CTG
Source text: as §1, §2, §3

[5] = test system: KRAS G13D mutant human colorectal cancer epithelial cell DLD-1; test: 3D cell proliferation inhibition assay, DLD-1; conditions: DLD-1, 168 h, 3D culture, 7 days, CTG
In short: as §4

[6] = test system: KRAS G12C mutant human non-small cell lung cancer cell NCI-H358; test: 3D cell proliferation inhibition assay, NCI-H358; conditions: NCI-H358, 168 h, 3D culture, 7 days, CTG
In short: as §4

[7] = test system: KRAS G12V mutant human lung squamous carcinoma cell SW900; test: 3D cell proliferation inhibition assay, SW900; conditions: SW900, 168 h, 3D culture, 7 days, CTG
[8] = target: T1, KRAS G12V protein in SW900 cells (Homo sapiens, UniProt P01116, G12V); test: KRAS degradation assay (Western Blot) in SW900 cells; conditions: 24 h
T1 construct: endogenous in cells; host or cells: SW900
In short: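 Western blot read-out: KRAS band gray value divided by β-actin, compared with DMSO control to give degradation rate. DC50 and Dmax came from log concentration–response fits after 24 h compound exposure (0.03–3000 nM final, 0.25% DMSO) at 37 °C, 5% CO2.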

[9] = test system: KRAS G12V mutant human colorectal cancer cell SW620; test: 3D cell proliferation inhibition assay, SW620; conditions: SW-620, 168 h, 3D culture, 7 days, CTG
In short: as §4

T1 sequence (P01116 1-188 isoform P01116-2 G12V): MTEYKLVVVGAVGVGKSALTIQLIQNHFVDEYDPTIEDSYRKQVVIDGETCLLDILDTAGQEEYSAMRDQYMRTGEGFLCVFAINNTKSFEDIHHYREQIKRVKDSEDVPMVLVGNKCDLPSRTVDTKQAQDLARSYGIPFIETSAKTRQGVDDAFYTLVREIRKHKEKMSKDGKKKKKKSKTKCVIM

| Compound | IC50 [1] | IC50 [2] | IC50 [3] | IC50 [4] | IC50 [5] | IC50 [6] | IC50 [7] | DC50 [8] | Dmax [8] | IC50 [9] |
| --- | --- | --- | --- | --- | --- | --- | --- | --- | --- | --- |
| C#Cc1c(F)ccc2cc(O)cc(-c3ncc4c(N5CCC[C@@](C)(O)C5)nc(OCC5(CN6CCN(CCC7CCC8(CC7)CCN(C(=O)c7ccc(Cl)c(N9CCC(=O)NC9=O)c7)CC8)CC6)CC5)nc4c3F)c12 [Example 9, (R)-1-(2-chloro-5-(9-(2-(4-((1-(((7-(8-ethynyl-7-fluoro-3-hydroxynaphthalen-1-yl)-8-fluoro-4-(3-hydroxy-3-methylpiperidin-1-yl)pyrido[4,3-d]pyrimidin-2-yl)oxy)methyl)cyclopropyl)methyl)piperazin-1-yl)ethyl)-3-azaspiro[5.5]undecane-3-carbonyl)phenyl)dihydropyrimidine-2,4(1H,3H)-dione] | ≤ 0.05 µM | ≤ 0.05 µM | 0.05 to 0.1 µM | ≤ 0.05 µM | ≤ 0.05 µM | ≤ 0.05 µM | ≤ 0.05 µM | ≤ 0.05 µM | 80 to 100% | – |
| C#Cc1c(F)ccc2cc(O)cc(-c3ncc4c(N5CCC[C@@](C)(O)C5)nc(OCC5(CN6CCC(COCCC7CCN(C(=O)c8ccc(Cl)c(N9CCC(=O)NC9=O)c8)CC7)CC6)CC5)nc4c3F)c12 [Example 10, (R)-1-(2-chloro-5-(4-(2-((1-((1-(((7-(8-ethynyl-7-fluoro-3-hydroxynaphthalen-1-yl)-8-fluoro-4-(3-hydroxy-3-methylpiperidin-1-yl)pyrido[4,3-d]pyrimidin-2-yl)oxy)methyl)cyclopropyl)methyl)piperidin-4-yl)methoxy)ethyl)piperidine-1-carbonyl)phenyl)dihydropyrimidine-2,4(1H,3H)-dione] | 0.05 to 0.1 µM | ≤ 0.05 µM | 0.05 to 0.1 µM | ≤ 0.05 µM | 0.05 to 0.1 µM | ≤ 0.05 µM | ≤ 0.05 µM | ≤ 0.05 µM | 80 to 100% | – |
| CCc1c(F)ccc2cc(O)cc(-c3ncc4c(N5CCC[C@@](C)(O)C5)nc(OCC5(CN6CCN(CC7CCC8(CC7)CCN(C(=O)c7ccc(C)c(N9CCC(=O)NC9=O)c7)CC8)CC6)CC5)nc4c3F)c12 [Example 19, (R)-1-(5-(9-((4-((1-(((7-(8-ethyl-7-fluoro-3-hydroxynaphthalen-1-yl)-8-fluoro-4-(3-hydroxy-3-methylpiperidin-1-yl)pyrido[4,3-d]pyrimidin-2-yl)oxy)methyl)cyclopropyl)methyl)piperazin-1-yl)methyl)-3-azaspiro[5.5]undecane-3-carbonyl)-2-methylphenyl)dihydropyrimidine-2,4(1H,3H)-dione] | 0.1 to 0.5 µM | ≤ 0.05 µM | ≤ 0.05 µM | ≤ 0.05 µM | ≤ 0.05 µM | ≤ 0.05 µM | ≤ 0.05 µM | ≤ 0.05 µM | 80 to 100% | 0.00082 µM |
| CCc1cccc2cc(O)cc(-c3ncc4c(N5CCC[C@@](C)(O)C5)nc(OCC5(CN6CCN(CC7CCC8(CC7)CCN(C(=O)c7ccc(OC)c(N9CCC(=O)NC9=O)c7)CC8)CC6)CC5)nc4c3F)c12 [Example 25, (R)-1-(5-(9-((4-((1-(((7-(8-ethyl-3-hydroxynaphthalen-1-yl)-8-fluoro-4-(3-hydroxy-3-methylpiperidin-1-yl)pyrido[4,3-d]pyrimidin-2-yl)oxy)methyl)cyclopropyl)methyl)piperazin-1-yl)methyl)-3-azaspiro[5.5]undecane-3-carbonyl)-2-methoxyphenyl)dihydropyrimidine-2,4(1H,3H)-dione] | 0.1 to 0.5 µM | ≤ 0.05 µM | ≤ 0.05 µM | ≤ 0.05 µM | ≤ 0.05 µM | 0.1 to 0.5 µM | ≤ 0.05 µM | ≤ 0.05 µM | 80 to 100% | 0.00245 µM |
| CCc1cccc2cc(O)cc(-c3ncc4c(N5CCC[C@@](C)(O)C5)nc(OCC5(CN6CCN(CC7CCC8(CC7)CCN(C(=O)c7ccc(C)c(N9CCC(=O)NC9=O)c7)CC8)CC6)CC5)nc4c3F)c12 [Example 26, (R)-1-(5-(9-((4-((1-(((7-(8-ethyl-3-hydroxynaphthalen-1-yl)-8-fluoro-4-(3-hydroxy-3-methylpiperidin-1-yl)pyrido[4,3-d]pyrimidin-2-yl)oxy)methyl)cyclopropyl)methyl)piperazin-1-yl)methyl)-3-azaspiro[5.5]undecane-3-carbonyl)-2-methylphenyl)dihydropyrimidine-2,4(1H,3H)-dione] | 0.1 to 0.5 µM | ≤ 0.05 µM | ≤ 0.05 µM | ≤ 0.05 µM | ≤ 0.05 µM | 0.1 to 0.5 µM | ≤ 0.05 µM | ≤ 0.05 µM | 80 to 100% | 0.00211 µM |
| CCc1cccc2cc(O)cc(-c3ncc4c(N5CCC[C@@](C)(O)C5)nc(OCC5(CN6CCN(CC7CCC8(CC7)CCN(C(=O)c7ccc(F)c(N9CCC(=O)NC9=O)c7)CC8)CC6)CC5)nc4c3F)c12 [Example 28, (R)-1-(5-(9-((4-((1-(((7-(8-ethyl-3-hydroxynaphthalen-1-yl)-8-fluoro-4-(3-hydroxy-3-methylpiperidin-1-yl)pyrido[4,3-d]pyrimidin-2-yl)oxy)methyl)cyclopropyl)methyl)piperazin-1-yl)methyl)-3-azaspiro[5.5]undecane-3-carbonyl)-2-fluorophenyl)dihydropyrimidine-2,4(1H,3H)-dione] | 0.1 to 0.5 µM | ≤ 0.05 µM | ≤ 0.05 µM | ≤ 0.05 µM | ≤ 0.05 µM | ≤ 0.05 µM | ≤ 0.05 µM | ≤ 0.05 µM | 80 to 100% | – |
| C#Cc1c(F)ccc2cc(O)cc(-c3ccc4c(N5CCC[C@@](C)(O)C5)nc(OCC5(CN6CCN(CC7CCC8(CC7)CCN(C(=O)c7ccc(Cl)c(N9CCC(=O)NC9=O)c7)CC8)CC6)CC5)nc4c3F)c12 [Example 33, (R)-1-(2-chloro-5-(9-((4-((1-(((7-(8-ethynyl-7-fluoro-3-hydroxynaphthalen-1-yl)-8-fluoro-4-(3-hydroxy-3-methylpiperidin-1-yl)quinazolin-2-yl)oxy)methyl)cyclopropyl)methyl)piperazin-1-yl)methyl)-3-azaspiro[5.5]undecane-3-carbonyl)phenyl)dihydropyrimidine-2,4(1H,3H)-dione] | ≤ 0.05 µM | 0.05 to 0.1 µM | ≤ 0.05 µM | ≤ 0.05 µM | ≤ 0.05 µM | 0.05 to 0.1 µM | 0.05 to 0.1 µM | ≤ 0.05 µM | 80 to 100% | 0.00771 µM |
| C#Cc1c(F)ccc2cc(O)cc(-c3ncc4c(N5CCC[C@@H](O)C5)nc(OCC5(CN6CCN(CC7CCC8(CC7)CCN(C(=O)c7ccc(C)c(N9CCC(=O)NC9=O)c7)CC8)CC6)CC5)nc4c3F)c12 [Example 45, (R)-1-(5-(9-((4-((1-(((7-(8-ethynyl-7-fluoro-3-hydroxynaphthalen-1-yl)-8-fluoro-4-(3-hydroxypiperidin-1-yl)pyrido[4,3-d]pyrimidin-2-yl)oxy)methyl)cyclopropyl)methyl)piperazin-1-yl)methyl)-3-azaspiro[5.5]undecane-3-carbonyl)-2-methylphenyl)dihydropyrimidine-2,4(1H,3H)-dione] | 0.05 to 0.1 µM | 0.05 to 0.1 µM | ≤ 0.05 µM | ≤ 0.05 µM | ≤ 0.05 µM | 0.1 to 0.5 µM | ≤ 0.05 µM | ≤ 0.05 µM | 80 to 100% | – |
